Assays:
FAK kinase = molecular target: T1, FAK kinase (Homo sapiens, UniProt Q05397); assay: ADP-Glo kinase enzymatic assay; assay type: biochemical; settings: mean ± SD of three independent experiments
T1 construct: purchased Promega Corporation V9301
Description: The ADP-Glo™ Kinase Assay Kit and FAK Kinase Enzyme (Catalog. V9301) were purchased from Promega Corporation (Madison, WI, USA). The experiments were performed according to the detailed and complete protocols of the manufacturer. Briefly, the concentration of FAK determined by optimization experiments was 0.1 μg/μL. Suitable concentration gradients from 1.6 to 1000 nM were set for all the tested compounds. A kinase reaction buffer, a substrate/ATP mixture, and a FAK solution were prepared right before use. The 5 μL kinase reaction consisted of 1 μL of compound solution, 2 μL of substrate/ATP mixture, and 2 μL of FAK solution. The control without enzyme was provided by 3 μL of kinase reaction buffer and 2 μL of substrate/ATP mixture. The negative control was prepared using 1 μL of kinase reaction buffer instead of a compound solution. The kinase reactions were added to a 384-well plate and incubated at room temperature for 60 min, then 5 μL of ADP-Glo™ Reagent was added to stop the kinase reaction and deplete the unconsumed ATP, and incubated at room temperature for 40 min. After adding 10 μL of Kinase Detection Reagent, the plate was incubated at room temperature for 30 min and then luminescence was recorded (integration time 0.5–1 s) on a TriStar® LB942 Multimode Microplate Reader (BERTHOLD TECHNOLOGIES GmbH & Co. KG., Bad Wildbad, Germany). Curve fitting and data presentations were performed using GraphPad Prism version 8.0.

[1] = system: H1975 non-small cell lung cancer (NSCLC) cells; assay: CCK-8 cell viability assay, H1975; assay type: cell-based; settings: Homo sapiens, NCI-H1975, CCK-8, 72 h, mean ± SD of three experiments, read-out: Antiproliferative Activity IC50, H1975
Description: (§1) The H1975 human NSCLC cell line was obtained from ATCC. A431 human epithelial carcinoma and HBE human bronchial epithelial cell lines were kind gifts from Fuheng Biological Company Ltd. (Shanghai, China) and YuXi Biotech Company (Jiangsu, China), respectively. The cells were maintained in RPMI 1640 or DMEM (Gibco®, Thermo Fisher Scientific Inc., Waltham, MA, USA) containing 10% fetal bovine serum (FBS, Gibco®) and 1% penicillin-streptomycin (Beyotime Company, Shanghai, China) at 37 °C in a 5% CO2 incubator.
(§2) A total of 3000 cells of H1975 or HBE and 5000 cells of A431 were seeded for each well into a 96-well plate and cultured in 10% FBS respective growth medium overnight. Various concentrations (0–20 μM) of each compound were then added in triplicate to the cells. After 72 h of incubation, 10 μL of CCK-8 solution (5.0 mg/mL, Biotool Company, Kirchberg, Switzerland) was added to each well and the cells continued to culture for 4 h. The optical density (OD) was determined at 450 nm with a microplate reader (Thermo Fisher Scientific, Waltham, MA, USA). IC50 values were calculated employing GraphPad Prism version 8.0.

[2] = system: A431 human epithelial carcinoma cells; assay: CCK-8 cell viability assay, A431; assay type: cell-based; settings: A-431, CCK-8, 72 h, mean ± SD of three experiments, read-out: Antiproliferative Activity IC50, A431
Description: as §1, §2

[3] = system: normal human bronchial epithelial cells (HBE); assay: CCK-8 cellular selectivity assay, HBE; assay type: cell-based; settings: for IC50: Homo sapiens, Epithelial cell, HBE normal cells, CCK-8, 72 h, mean ± SD of three experiments, read-out: Antiproliferative Activity IC50, HBE; for SI Values (selectivity index): IC50 for HBE cell line/IC50 for H1975 cell line
Description: as §1, §2

T1 sequence (Q05397 393-698 limits assumed): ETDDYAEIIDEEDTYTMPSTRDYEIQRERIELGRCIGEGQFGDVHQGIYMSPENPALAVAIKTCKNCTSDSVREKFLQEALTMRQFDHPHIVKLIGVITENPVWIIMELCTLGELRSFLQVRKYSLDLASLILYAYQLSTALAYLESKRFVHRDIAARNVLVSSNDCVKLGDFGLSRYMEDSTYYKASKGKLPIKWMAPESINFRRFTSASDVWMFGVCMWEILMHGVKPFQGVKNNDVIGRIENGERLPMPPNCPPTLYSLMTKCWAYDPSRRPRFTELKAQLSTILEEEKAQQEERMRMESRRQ

| IC50 (FAK kinase) | IC50 [1] | IC50 [2] | melting point | SMILES | IC50 [3] | SI Values (selectivity index) [3] |
| --- | --- | --- | --- | --- | --- | --- |
| 173 ± 23 nM | 2220 ± 261 nM | 195 ± 97 nM |  | O=C(c1ccccc1Nc1nc(Nc2ccc(CN3CCOCC3)cc2)ncc1Cl)N1CCC(CO)CC1 [Compound 8f] | 862 ± 125 nM | 0.4 |
| 89 ± 14 nM | 567 ± 86 nM | 1070 ± 154 nM | 187 to 189 °C | CC(CNC(=O)c1ccccc1Nc1nc(Nc2ccc(CN3CCOCC3)cc2)ncc1Cl)Oc1no[n+]([O-])c1S(=O)(=O)c1ccccc1 (centres unmarked) [Compound 9c, 4-((1-(2-((5-Chloro-2-((4-(morpholinomethyl)phenyl)amino)pyrimidin-4-yl)amino)benzamido)propan-2-yl)oxy)-3-(phenylsulfonyl)-1,2,5-oxadiazole 2-oxide] | 2420 ± 546 nM | 4 |
| 30 ± 7 nM | 119 ± 47 nM | 158 ± 27 nM |  | CC(O)CNC(=O)c1ccccc1Nc1nc(Nc2ccc(CN3CCOCC3)cc2)ncc1Cl (centres unmarked) [Compound 8c, 2-((5-Chloro-2-((4-(morpholinomethyl)phenyl)amino)pyrimidin-4-yl)amino)-N-(2-hydroxypropyl)benzamide] | 4010 ± 231 nM | 34 |
| 61 ± 9 nM | 75 ± 11 nM | 207 ± 36 nM |  | O=C(NCCCO)c1ccccc1Nc1nc(Nc2ccc(CN3CCOCC3)cc2)ncc1Cl [Compound 8b, 2-((5-Chloro-2-((4-(morpholinomethyl)phenyl)amino)pyrimidin-4-yl)amino)-N-(3-hydroxypropyl)benzamide] | 1150 ± 283 nM | 15 |
|  | 116 ± 32 nM | 988 ± 119 nM |  | C=CC(=O)Nc1cc(Nc2nccc(-c3cn(C)c4ccccc34)n2)c(OC)cc1N(C)CCN(C)C [Osimertinib, osimertinib, reference compound] | 1210 ± 177 nM | 10 |
| 300 ± 9 nM | 1570 ± 265 nM | 1740 ± 305 nM | 109 to 111 °C | O=C(c1ccccc1Nc1nc(Nc2ccc(CN3CCOCC3)cc2)ncc1Cl)N1CCC(COc2no[n+]([O-])c2S(=O)(=O)c2ccccc2)CC1 [Compound 9f, 4-((1-(2-((5-Chloro-2-((4-(morpholinomethyl)phenyl)amino)pyrimidin-4-yl)amino)benzoyl)piperidin-4-yl)methoxy)-3-(phenylsulfonyl)-1,2,5-oxadiazole 2-oxide] | 3760 ± 1600 nM | 2 |
| 129 ± 37 nM | 1410 ± 132 nM | 238 ± 98 nM |  | O=C(c1ccccc1Nc1nc(Nc2ccc(CN3CCOCC3)cc2)ncc1Cl)N1CCC(O)CC1 [Compound 8e] | 435 ± 45 nM | 0.3 |
| 126 ± 21 nM | 815 ± 61 nM | 1240 ± 909 nM |  | CCC(C)C(CO)NC(=O)c1ccccc1Nc1nc(Nc2ccc(CN3CCOCC3)cc2)ncc1Cl (centres unmarked) [Compound 8i, 2-((5-Chloro-2-((4-(morpholinomethyl)phenyl)amino)pyrimidin-4-yl)amino)-N-(1-hydroxy-3-methylpentan-2-yl)benzamide] | > 20000 nM | >24 |
| 40 ± 11 nM | 293 ± 50 nM | 161 ± 82 nM |  | CN(CCO)C(=O)c1ccccc1Nc1nc(Nc2ccc(CN3CCOCC3)cc2)ncc1Cl [Compound 8d, 2-((5-Chloro-2-((4-(morpholinomethyl)phenyl)amino)pyrimidin-4-yl)amino)-N-(2-hydroxyethyl)-N-methylbenzamide] | 3820 ± 500 nM | 13 |
| 149 ± 33 nM | 47 ± 9 nM | 182 ± 32 nM | 174 to 176 °C | O=C(NCCOc1no[n+]([O-])c1S(=O)(=O)c1ccccc1)c1ccccc1Nc1nc(Nc2ccc(CN3CCOCC3)cc2)ncc1Cl [Compound 9a, 4-(2-(2-((5-Chloro-2-((4-(morpholinomethyl)phenyl)amino)pyrimidin-4-yl)amino)benzamido)ethoxy)-3-(phenylsulfonyl)-1,2,5-oxadiazole 2-oxide] | 916 ± 92 nM | 19 |
| 66 ± 14 nM | 1090 ± 137 nM | 2740 ± 206 nM | 169 to 171 °C | CN(CCOc1no[n+]([O-])c1S(=O)(=O)c1ccccc1)C(=O)c1ccccc1Nc1nc(Nc2ccc(CN3CCOCC3)cc2)ncc1Cl [Compound 9d, 4-(2-(2-((5-Chloro-2-((4-(morpholinomethyl)phenyl)amino)pyrimidin-4-yl)amino)-N-methylbenzamido)ethoxy)-3-(phenylsulfonyl)-1,2,5-oxadiazole 2-oxide] | 4550 ± 533 nM | 4 |
| > 1000 nM | 592 ± 73 nM | 617 ± 40 nM | 120 to 122 °C | O=C(NCCCCCCOc1no[n+]([O-])c1S(=O)(=O)c1ccccc1)c1ccccc1Nc1nc(Nc2ccc(CN3CCOCC3)cc2)ncc1Cl [Compound 9g, 4-((6-(2-((5-Chloro-2-((4-(morpholinomethyl)phenyl)amino)pyrimidin-4-yl)amino)benzamido)hexyl)oxy)-3-(phenylsulfonyl)-1,2,5-oxadiazole 2-oxide] | 3010 ± 90 nM | 5 |
| 72 ± 7 nM | 219 ± 82 nM | 47 ± 6 nM |  | O=C(NCC(O)CO)c1ccccc1Nc1nc(Nc2ccc(CN3CCOCC3)cc2)ncc1Cl (centres unmarked) [Compound 8h, 2-((5-Chloro-2-((4-(morpholinomethyl)phenyl)amino)pyrimidin-4-yl)amino)-N-(2,3-dihydroxypropyl)benzamide] | 688 ± 121 nM | 3 |
| 338 ± 38 nM | 164 ± 51 nM | 138 ± 31 nM | 144 to 146 °C | O=C(NCCCOc1no[n+]([O-])c1S(=O)(=O)c1ccccc1)c1ccccc1Nc1nc(Nc2ccc(CN3CCOCC3)cc2)ncc1Cl [Compound 9b, 4-(3-(2-((5-Chloro-2-((4-(morpholinomethyl)phenyl)amino)pyrimidin-4-yl)amino)benzamido)propoxy)-3-(phenylsulfonyl)-1,2,5-oxadiazole 2-oxide] | 2080 ± 366 nM | 13 |
| 198 ± 32 nM | 287 ± 61 nM | 507 ± 19 nM |  | O=C(NCCCCCCO)c1ccccc1Nc1nc(Nc2ccc(CN3CCOCC3)cc2)ncc1Cl [Compound 8g, 2-((5-Chloro-2-((4-(morpholinomethyl)phenyl)amino)pyrimidin-4-yl)amino)-N-(6-hydroxyhexyl)benzamide] | 1640 ± 813 nM | 6 |
| > 1000 nM | 1720 ± 295 nM | 2410 ± 587 nM | 130 to 132 °C | O=C(c1ccccc1Nc1nc(Nc2ccc(CN3CCOCC3)cc2)ncc1Cl)N1CCC(Oc2no[n+]([O-])c2S(=O)(=O)c2ccccc2)CC1 [Compound 9e, 4-((1-(2-((5-Chloro-2-((4-(morpholinomethyl)phenyl)amino)pyrimidin-4-yl)amino)benzoyl)piperidin-4-yl)oxy)-3-(phenylsulfonyl)-1,2,5-oxadiazole 2-oxide] | 763 ± 100 nM | 0.4 |

Reference: publication PMC8304610, “Discovery of Novel 2,4-Dianilinopyrimidine Derivatives Containing 4-(Morpholinomethyl)phenyl and N-Substituted Benzamides as Potential FAK Inhibitors and Anticancer Agents” (Molecules, 2021)
